Assay results as given in patent publication US20180312473A1, “PHENAZINE DERIVATIVES AS ANTIMICROBIAL AGENTS” (priority 2015, published 2018).
Values after ≈ are worked out from the molar mass of the structure shown. Values joined by “and” are separate entries in the source; they are usually repeats but may differ in a detail not shown here. Identical values can stand only once. Like-named read-outs stand apart in the source and are kept apart here. Marks after values point to notes of the source that are not given here.

Experiments:
[1] = system: MRSA-2 (methicillin-resistant Staphylococcus aureus clinical isolate); assay: MIC assay (broth microdilution, CLSI); format: cell-based; conditions: Staphylococcus aureus, MRSA, read-out: MIC, MRSA-2
[2] = system: Enterococcus faecium (ATCC 700221), VRE; assay: MIC assay (broth microdilution, CLSI); format: cell-based
[3] = system: MRSA-2 planktonic cells and biofilms; assay: Calgary Biofilm Device (CBD) assay, MBC/MBEC; format: cell-based, Staphylococcus aureus; conditions: for MBC: Staphylococcus aureus, MRSA
[4] = system: MRSE (S. epidermidis ATCC 35984) planktonic cells and biofilms; assay: Calgary Biofilm Device (CBD) assay, MBC/MBEC; format: cell-based, Staphylococcus epidermidis; conditions: for MBC: Staphylococcus epidermidis
[5] = system: VRE (E. faecium ATCC 700221) planktonic cells and biofilms; assay: Calgary Biofilm Device (CBD) assay, MBC/MBEC; format: cell-based, Enterococcus faecium; conditions: for MBC: Enterococcus
P. aeruginosa (PAO1) = assay: MIC assay (broth microdilution, CLSI); format: cell-based; conditions: Pseudomonas aeruginosa, PAO1; read-out: PAO1 MIC
K. pneumoniae 13883 = assay: MIC assay (broth microdilution, CLSI); format: cell-based, Klebsiella pneumoniae; conditions: Klebsiella pneumoniae, 13883; read-out: K. pneumoniae 13883 MIC
E. coli UAEC-1 = assay: MIC assay (broth microdilution, CLSI); format: cell-based; conditions: Escherichia coli, UAEC1; read-out: E. coli UAEC-1 MIC
E. faecium 700221 (VRE) = assay: MIC assay with Tiron or metal(II) cation co-treatment; format: cell-based, Enterococcus faecium
MRSA BAA-1707 = assay: MIC assay (broth microdilution, CLSI); conditions: Staphylococcus aureus, read-out: MIC, MRSA BAA-1707
[6] = system: MRSA BAA-1707 planktonic cells and biofilms; assay: Calgary Biofilm Device (CBD) assay, MBC/MBEC; conditions: Staphylococcus aureus, read-out: MRSA BAA-1707 MBC
[7] = system: MRSA BAA-44 planktonic cells and biofilms; assay: Calgary Biofilm Device (CBD) assay, MBC/MBEC; conditions: Staphylococcus aureus, read-out: MRSA BAA-44 MBC
[8] = system: Staphylococcus epidermidis (ATCC 12228); assay: MIC assay (broth microdilution, CLSI); format: cell-based; conditions: Staphylococcus epidermidis, ATCC12228; Table 7; b lowest concentration tested; read-out: MIC, S. epidermidis 12228
MRSE 35984 biofilms = assay: Live/Dead staining (fluorescence microscopy) of MRSE 35984 biofilms; format: cell-based, Staphylococcus epidermidis; conditions: 24 h
Experimental: In addition to Calgary Biofilm Device experiments, we evaluated select HPs against staphylococcal biofilms in live/dead staining experiments. HP 14 was added to 24 hour old MRSE biofilms at 0.1, 1, and 10 μM and allowed to incubate at 37° C. for an additional 24 hours. Following this, images of the treated and untreated S. epidermidis biofilm were taken using fluorescence microscopy (FIG. 11).
A mid-log culture of MRSE […] was diluted 1:1,000-fold and 500 μL was transferred to each compartment of a 4 compartment CELLview dish (Greiner Bio-One 627871). The dish was then incubated for 24 hours at 37° C. After this time, the cultures were removed and the plate was washed with 0.9% saline. The dish was then treated with the compounds in fresh media at various concentrations. DMSO was used as our negative control in this assay. The dish was incubated with the compound for 24 hours at 37° C. After this time, the cultures were removed and the dish was washed with 0.9% saline for 2 minutes. Saline was then removed and 500 μL of the stain (Live/Dead BacLight Viability Kit, Invitrogen) were added for 15 minutes and left in the dark. After this time, the stain was removed and the dish was washed twice with 0.9% saline. Then the dish was fixed with 500 μL 4% paraformaldehyde in PBS for 30 minutes. Images of remaining MRSE biofilms were then taken with a fluorescence microscope. All data were analyzed using IMAGE J software.

[9] = system: MRSA-2 persister cells (stationary cultures); conditions: 12.5 μM; reduction of viable cells over 24 h; listed as 214
MRSA BAA-44 = assay: MIC assay (broth microdilution, CLSI); conditions: Staphylococcus aureus, read-out: MIC, MRSA BAA-44
[10] = system: MRSA-2 persister cells (stationary cultures); assay: microbe, parasite or virus in culture; conditions: Staphylococcus aureus, 24 h, read-out: reduction of viable stationary MRSA-2 cells
[11] = system: S. aureus clinical isolate SA 129; assay: MIC assay (broth microdilution, CLSI); conditions: Staphylococcus aureus, read-out: MIC, SA 129
[12] = system: S. aureus clinical isolate SA 147; assay: MIC assay (broth microdilution, CLSI); conditions: Staphylococcus aureus, read-out: MIC, SA 147
[13] = system: S. aureus clinical isolate SA 156; assay: MIC assay (broth microdilution, CLSI); conditions: Staphylococcus aureus, read-out: MIC, SA 156
[14] = system: MRSA biofilms (MRSA-2, BAA-1707, BAA-44); assay: Calgary Biofilm Device assay, values summarised over MRSA strains
[15] = Table 2B, a midpoint of 2-fold range, * partial growth inhibition at highest concentration
[16] = Table 7, a midpoint of 2-fold range, b lowest concentration tested
[17] = Table 7, b lowest concentration tested, read-out: MIC, VRE 700221
[18] = Table 5, a/b midpoint of 2-/4-fold range, read-out: MRSA-2 MBC
[19] = Table 8, a/b 2-/4-fold range in independent experiments, read-out: MRSA-2 MBC
[20] = Table 8, read-out: MRSE 35984 MBC
[21] = viable biofilm cell count from CBD peg

Oc1ccc(I)c2nc3cc(Cl)c(Cl)cc3nc12 [Compound 12, 7,8-Dichloro-4-iodo-1-hydroxyphenazine]
MIC ([1]; Table 2A): 0.39 µM (≈ 0.152 µg/mL) | MIC [1, 15]: 0.39 µM (≈ 0.152 µg/mL) | MIC [1, 16]: 0.39 µM (≈ 0.152 µg/mL) | MIC ([2]; Enterococcus faecium, read-out: MIC, Enterococcus faecium (ATCC 700221), Table 2B, b lowest concentration tested): 3.13 µM | MIC [2, 17]: 3.13 µM | MIC ([2]; read-out: MIC, VRE 700221, Table 7, b lowest concentration tested): 3.13 to 6.25 µM | MBC ([3]; Table 4, read-out: MBC, MRSA-2): 25 µM (≈ 9.77 µg/mL) | MBC [3, 18]: 25 µM (≈ 9.77 µg/mL) | MBC [3, 19]: 25 µM (≈ 9.77 µg/mL) | MBC ([4]; Table 5, read-out: MRSE MBC): 9.38 µM (≈ 3.67 µg/mL) | MBC [4, 20]: 9.38 µM (≈ 3.67 µg/mL) | MRSE MBEC ([4]; Table 5): 75 µM | MBC ([5]; read-out: VRE 700221 MBC): 3.13 µM (≈ 1.22 µg/mL) | MIC (P. aeruginosa (PAO1)): > 100 µM | MIC (K. pneumoniae 13883): > 100 µM | MIC (E. coli UAEC-1): > 100 µM | MIC (E. faecium 700221 (VRE)): 3.13 µM | MIC (E. faecium 700221 (VRE); Enterococcus faecium, VRE): 3.13 µM | MIC (E. faecium 700221 (VRE); Enterococcus faecium, VRE, read-out: MIC with Tiron): 3.13 µM | MIC (E. faecium 700221 (VRE); Enterococcus faecium, VRE, E. faecium 700221, 200 μM CuSO4, read-out: MIC with Cu^2+): 1.56 µM | MIC (E. faecium 700221 (VRE); read-out: MIC with Tiron): 3.13 µM | MIC (MRSA BAA-1707): 0.15 µM (≈ 0.0586 µg/mL) | MBC [6]: 75 µM (≈ 29.3 µg/mL) | MBC [7]: 75 µM (≈ 29.3 µg/mL)

Oc1c(Br)cc(I)c2nc3cc(Cl)c(Cl)cc3nc12 [Compound 14, 2-bromo-7,8-dichloro-4-iodo-1-hydroxyphenazine]
MIC [1, 15]: 3.13 µM (≈ 1.47 µg/mL) | MIC [1, 16]: 3.13 µM (≈ 1.47 µg/mL) | MIC [8]: 0.1 µM (≈ 0.047 µg/mL) | MIC ([2]; Enterococcus faecium, Table 2A, read-out: MIC, Enterococcus faecium (ATCC 700221)): < 0.1 µM | MIC ([2]; Enterococcus faecium, Table 2B, b lowest concentration tested, read-out: MIC, Enterococcus faecium (ATCC 700221)): 0.1 µM | MIC, VRE 700221 ([2]; Table 7, b lowest concentration tested): 0.10^b μM | MIC [2, 17]: 0.1 µM | MIC ([2]; read-out: MIC, VRE): 0.05 µg/mL | MBC [3, 18]: 3.13 µM (≈ 1.47 µg/mL) | MBC [3, 19]: 3.13 µM (≈ 1.47 µg/mL) | persister cells eradicated within MRSA biofilms at the MBEC [3, 21]: > 99.9% | persister cells eradicated within MRSA-2 biofilms at the MBEC [3, 21]: > 3 log | MBC ([4]; Table 5, read-out: MRSE MBC): 1.56 µM (≈ 0.733 µg/mL) | MBC [4, 20]: 1.56 µM (≈ 0.733 µg/mL) | MRSE MBEC ([4]; Table 5, listed as 214): 1.56 μM and 1.56/1.56 μM | MBC ([5]; Table 5, c lowest concentration tested, read-out: VRE MBC): 0.2 µM (≈ 0.094 µg/mL) | MBC ([5]; Table 8, c lowest concentration tested, read-out: VRE 700221 MBC): 0.2 µM (≈ 0.094 µg/mL) | VRE MBEC ([5]; Table 5, c lowest concentration tested, listed as 214): 0.20 μM and 0.20^c/0.20^c μM | effect on established MRSE biofilm (Live/Dead staining) (MRSE 35984 biofilms; 0.1 μM): a significant amount of MRSE biofilm cells were eradicated, however, not cleared from within the biofilm | effect on established MRSE biofilm (Live/Dead staining) (MRSE 35984 biofilms; 1 μM): a significant amount of the biofilm cells | effect on established MRSE biofilm (Live/Dead staining) (MRSE 35984 biofilms; 10 μM): removed all detectable MRSE biofilm cells from the glass surface | MRSA-2 stationary killing [9]: >3 log | MIC (MRSA BAA-1707): 0.3 µM (≈ 0.141 µg/mL) | MIC (MRSA BAA-44): 3.13 µM (≈ 1.47 µg/mL) | inhibition at 12.5 µM [10]: > 99.9% | MIC [11]: 1.56 µM (≈ 0.733 µg/mL) | MIC [12]: 0.3 µM (≈ 0.141 µg/mL) | MIC [13]: 0.3 µM (≈ 0.141 µg/mL) | MBC [7]: 12.5 µM (≈ 5.87 µg/mL) | MBEC against MRSA biofilms [14]: < 10 µM and 6.25 to 9.38 µM
